Experimental data as given in US20210246115A1 (Bioimics AB, priority 2017, published 2021).
Converted amounts (≈) assume the structure as drawn. Counter-ions that a name gives are not always drawn. Like-named read-outs stand apart in the source and are kept apart here.

What was measured:
[1] = tested on: Staphylococcus aureus subsp. aureus (ATCC29213); assay: MIC, broth microdilution (CLSI), Staphylococcus aureus ATCC29213; format: cell-based; conditions: for MIC: Staphylococcus aureus; for S. aureus ATCC 29213 MIC: Table XIII, hydrochloride salt
[2] = tested on: E. coli RNase P RNA, M1 RNA; assay: Inhibition of bacterial RNase P activity, IC50 determination (cleavage of pATSerUG by M1 RNA); format: biochemical; conditions: NI: No inhibition
[3] = tested on: Escherichia coli (ATCC25922); assay: MIC, broth microdilution (CLSI), Escherichia coli; conditions: for MIC: Escherichia coli, ATCC25922, read-out: E. coli ATCC 25922 MIC, Table XIII
[4] = ATCC29213, read-out: S. aureus ATCC 29213 MIC, Table XIII
[5] = ATCC29213, Table XIII, read-out: S. aureus ATCC 29213 MIC

| IC50 [2] [µM] | MIC [3] [µg/mL] | MIC [1, 5] [µg/mL] | Structure (SMILES) | MIC [1, 4] [µg/mL] | S. aureus ATCC 29213 MIC [1] [µg/mL] | IC50 ([2]; hydrochloride salt) [µM] | E. coli ATCC 25922 MIC ([3]; Table XIII) [µg/mL] |
| --- | --- | --- | --- | --- | --- | --- | --- |
| 8.3 | 4 | 4 | CCCCCCCCn1cc(C(CCNCCCN)C(CC)CC)c2ccccc21.Cl.Cl (centres unmarked) [Compound 426, N1-(4-ethyl-3-(1-octyl-1H-indol-3-yl)hexyl)propane-1,3-diamine hydrochloride salt] | – | – | – | – |
| 68 | 8 | 8 | Cc1cccc(C(CCNCCCN)c2cn(C3CCCC3)c3ccccc23)c1.Cl.Cl (centres unmarked) [Compound 334, N1-(3-(1-cyclopentyl-1H-indol-3-yl)-3-(m-tolyl)propyl)propane-1,3-diamine hydrochloride salt] | – | – | – | – |
| 31 | 2 | 8 | Cl.Cl.NCCCNCCC(c1cn(C2CCCCC2)c2ccccc12)C1CCCC1 (centres unmarked) [Compound 423, N1-(3-(1-cyclohexyl-1H-indol-3-yl)-3-cyclopentylpropyl) propane-1,3-diamine hydrochloride salt] | – | – | – | – |
| 39 | 8 | 8 | Cc1cccc(C(CCN[C@H]2CC[C@H](N)CC2)c2cn(C3CCCC3)c3ccccc23)c1.Cl.Cl (stereo partly drawn) [Compound 332, (1R,4R)-N1-(3-(1-cyclopentyl-1H-indol-3-yl)-3-(m-tolyl)propyl) cyclohexane-1,4-diamine hydrochloride salt] | – | – | – | – |
| 11 | 4 | 4 | Cc1cccc(C(CCNCCCN)c2cn(C3CCCCC3)c3ccc(Br)cc23)c1.Cl.Cl (centres unmarked) [Compound 655, N1-(3-(5-bromo-1-cyclohexyl-1H-indol-3-yl)-3-(m-tolyl)propyl)propane-1,3-diamine hydrochloride salt] | – | – | – | – |
| 26 | 2 | 4 | CCC(CC)C(CCNCCCN)c1cn(C2CCCCC2)c2ccccc12.Cl.Cl (centres unmarked) [Compound 416, N1-(3-(1-cyclohexyl-1H-indol-3-yl)-4-ethylhexyl)propane-1,3-diamine hydrochloride salt] | – | – | – | – |
| 21 | > 128 | 4 (≈ 7.12 µM) | Cc1cccc(C(CCNCCCNS(=O)(=O)c2ccc(F)cc2)c2cn(C3CCCCC3)c3ccccc23)c1 (centres unmarked) [Compound 365, N-(3-((3-(1-cyclohexyl-1H-indol-3-yl)-3-(m-tolyl)propyl)amino)propyl)-4-fluorobenzenesulfonamide] | – | – | – | – |
| 37 | 4 | 4 | Cl.Cl.NCCCNCCC(c1cccc(Cl)c1)c1cn(C2CCCCC2)c2ccccc12 (centres unmarked) [Compound 356, N1-(3-(3-chlorophenyl)-3-(1-cyclohexyl-1H-indol-3-yl)propyl) propane-1,3-diamine hydrochloride salt] | – | – | – | – |
| 4.4 | 4 | 2 | CCCCCCCCn1cc(C(CCNCCCN)C2CCCCC2)c2cc(C#N)ccc21.Cl.Cl (centres unmarked) [Compound 427, 3-(3-((3-aminopropyl)amino)-1-cyclohexylpropyl)-1-octyl-1H-indole-5-carbonitrile hydrochloride salt] | – | – | – | – |
| – | – | – | NC1CCC(NCCC(c2cccc(OC(F)(F)F)c2)c2cn(C3CCCCC3)c3ccccc23)CC1 [Compound 397, (1S,4S)-N1-(3-(1-cyclohexyl-1H-indol-3-yl)-3-(3-(trifluoromethoxy)phenyl)propyl)cyclohexane-1,4-diamine hydrochloride salt] | – | 2 | 6 | 8 |
| 2.8 | 4 | 2 | CCCCCCCCn1cc(C(CCNCCCN)C2CCCCC2)c2ccccc21.Cl.Cl (centres unmarked) [Compound 417, N1-(3-cyclohexyl-3-(1-octyl-1H-indol-3-yl)propyl)propane-1,3-diamine hydrochloride salt] | – | – | – | – |
| 120 | > 128 | 8 | CC(=O)N1CCC(NCCC(c2cccc(C)c2)c2cn(C3CCCCC3)c3ccccc23)CC1.Cl (centres unmarked) [Compound 373, 1-(4-((3-(1-cyclohexyl-1H-indol-3-yl)-3-(m-tolyl)propyl)amino)piperidin-1-yl) ethan-1-one salt] | – | – | – | – |
| – | 128 | 32 | Cl.Cl.NCCCNCCC(c1ccncc1)c1cn(C2CCCCC2)c2ccccc12 (centres unmarked) [Compound 339, N1-(3-(1-cyclohexyl-1H-indol-3-yl)-3-(pyridin-4-yl)propyl)propane-1,3-diamine hydrochloride salt] | – | – | – | – |
| – | > 128 | 8 | Cc1cccc(C(CCOCCCN(C)C)c2cn(C3CCCCC3)c3ccccc23)c1 (centres unmarked) [Compound 364, 3-(3-(1-cyclohexyl-1H-indol-3-yl)-3-(m-tolyl)propoxy)-N,N-dimethylpropan-1-amine salt] | – | – | – | – |
| – | 8 | 16 | Cc1ccccc1C(CCNCCCN)c1cn(C2CCCC2)c2ccccc12.Cl.Cl (centres unmarked) [Compound 342, N1-(3-(1-cyclopentyl-1H-indol-3-yl)-3-(o-tolyl)propyl)propane-1,3-diamine hydrochloride salt] | – | – | – | – |
| – | 64 | 64 | Cl.Cl.c1ccc2c(c1)c(C(CCNC1CCNCC1)c1ccncc1)cn2C1CCCCC1 (centres unmarked) [Compound 335, N-(3-(1-cyclohexyl-1H-indol-3-yl)-3-(pyridin-4-yl)propyl)piperidin-4-amine hydrochloride salt] | – | – | – | – |
| – | > 128 | 128 | CC(=O)N1CCC(N(CCC(c2cccc(C)c2)c2cn(C3CCCCC3)c3ccccc23)C(C)=O)CC1 (centres unmarked) [Compound 354, N-(1-acetylpiperidin-4-yl)-N-(3-(1-cyclohexyl-1H-indol-3-yl)-3-(m-tolyl)propyl)acetamide salt] | – | – | – | – |

| Structure (SMILES) | IC50 [2] [µM] | MIC [3] [µg/mL] | MIC [1, 5] [µg/mL] | MIC [1, 4] [µg/mL] | S. aureus ATCC 29213 MIC [1] [µg/mL] | IC50 ([2]; hydrochloride salt) [µM] | E. coli ATCC 25922 MIC ([3]; Table XIII) [µg/mL] |
| --- | --- | --- | --- | --- | --- | --- | --- |
| FC(F)(F)Oc1cccc(-c2ccc3c(c2)c(C2CCCC(NC4CCNCC4)C2)cn3C2CCCCC2)c1 (centres unmarked) [Compound 403, N-(3-(1-cyclohexyl-5-(3-(trifluoromethoxy)phenyl)-1H-indol-3-yl)cyclohexyl) piperidin-4-amine hydrochloride salt] | 7 | 16 | – | 4 | – | – | – |
| Cc1cccc(C(CCNCC(N)CN)c2cn(C3CCCCC3)c3ccccc23)c1 (centres unmarked) [Compound 394, N1-(3-(1-cyclohexyl-1H-indol-3-yl)-3-(m-tolyl)propyl)propane-1,2,3-triamine hydrochloride salt] | 15 | 32 | – | 8 | – | – | – |
| Cl.Cl.NCCCNCCC(c1cccc(OC(F)(F)F)c1)c1cn(C2CCCCC2)c2ccccc12 (centres unmarked) [Compound 370, N1-(3-(1-cyclohexyl-1H-indol-3-yl)-3-(3-(trifluoromethoxy)phenyl)propyl) propane-1,3-diamine salt] | 8.4 | 4 | 4 | – | – | – | – |
| Cc1cccc(C(CCNC2CCNCC2)c2cn(C3CC4CCC3C4)c3ccccc23)c1 (centres unmarked) [Compound 323, hydrochloride salt] | 42 | 4 | – | 8 | – | – | – |
| Cc1cccc(CC(CCNC2CCNCC2)c2cn(C3CCCCC3)c3ccccc23)c1 (centres unmarked) [Compound 418, N-(3-(1-cyclohexyl-1H-indol-3-yl)-4-(m-tolyl)butyl)piperidin-4-amine hydrochloride salt] | 17 | 4 | – | 8 | – | – | – |
| Cc1cccc(C(CCN(CCCN)CCCN)c2cn(C3CCCCC3)c3ccccc23)c1 (centres unmarked) [Compound 363, N1-(3-aminopropyl)-N1-(3-(1-cyclohexyl-1H-indol-3-yl)-3-(m-tolyl)propyl)propane-1,3-diamine hydrochloride salt] | 12 | 32 | – | 16 | – | – | – |
| Cc1cccc(C(CCNC2CCC(N)CC2)c2cn(C3CCCCC3)c3ccccc23)c1 (centres unmarked) [Compound 308, N1-(3-(1-cyclohexyl-1H-indol-3-yl)-3-(m-tolyl)propyl)cyclohexane-1,4-diamine hydrochloride salt] | – | 4 | – | – | 4 | 29 | – |
| N#Cc1ccc2c(C(CCNC3CCNCC3)c3cccc(OC(F)(F)F)c3)cn(C3CCCCC3)c2c1 (centres unmarked) [Compound 414, 1-cyclohexyl-3-(3-(piperidin-4-ylamino)-1-(3-(trifluoromethoxy)phenyl)propyl)-1H-indole-6-carbonitrile hydrochloride salt] | 16 | 8 | – | 4 | – | – | – |
| N#Cc1ccc2c(c1)c(C(CCNC1CCNC1)C1CCCCC1)cn2C1CCCCC1 (centres unmarked) [Compound 413, 1-cyclohexyl-3-(1-cyclohexyl-3-(pyrrolidin-3-ylamino)propyl)-1H-indole-5-carbonitrile hydrochloride salt] | 20 | 8 | – | 4 | – | – | – |
| O=C(O)c1ccc2c(c1)c(CNCC1CCNCC1)cn2CC1CCCCC1 [Compound 305, 1-(cyclohexylmethyl)-3-(((piperidin-4-ylmethyl)amino)methyl)-1H-indole-5-carboxylic acid hydrochloride salt] | – | > 128 | – | > 128 | – | – | – |
| c1cncc(C(CCNC2CCNCC2)c2cn(C3CC4CCC3C4)c3ccccc23)c1 (centres unmarked) [Compound 325, hydrochloride salt] | – | 64 | – | 64 | – | – | – |
| CN(Cc1cn(CC2CCCCC2)c2ccccc12)CC1CCNCC1 [Compound 301, 1-(1-(cyclohexylmethyl)-1H-indol-3-yl)-N-methyl-N-(piperidin-4-ylmethyl)methanamine hydrochloride salt] | – | 128 | – | 128 | – | – | – |
| c1ccc2c(c1)c(CNCC1CCNCC1)cn2CC1CCCCC1 [Compound 300, 1-(1-(cyclohexylmethyl)-1H-indol-3-yl)-N-(piperidin-4-ylmethyl)methanamine hydrochloride salt] | – | 128 | – | 128 | – | – | – |
| Cc1cccc(C(CCNC2CCC(N)CC2)c2cn(CC3CCOCC3)c3ccc(C#N)cc23)c1 (centres unmarked) [Compound 312, 3-(3-((4-aminocyclohexyl)amino)-1-(m-tolyl)propyl)-1-((tetrahydro-2H-pyran-4-yl)methyl)-1H-indole-5-carbonitrile hydrochloride salt] | – | 64 | – | 32 | – | – | – |
